Assay results published in the supplement of paper PMC10307832.

Tests used:
Experiment in all cases: relative viability (nuclei count vs DMSO), 5 days (fraction); higher = more cells survive
OSI-027 + Foretinib = compound: COc1cccc2cc(-c3nc([C@H]4CC[C@H](C(=O)O)CC4)n4ncnc(N)c34)[nH]c12 [OSI-027] + COc1cc2c(Oc3ccc(NC(=O)C4(C(=O)Nc5ccc(F)cc5)CC4)cc3F)ccnc2cc1OCCCN1CCOCC1 [Foretinib] (partner 0.25 µM)
In short: (§1)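 Lung cancer cell lines, seeded in 1536-well plates, were treated the following day by pin tool with a single drug or with five library-drug doses (not always all listed) in √10 steps on top of a fixed anchor-drug dose. Cells were fixed and nuclei stained in one step after 5 days, and nuclei were counted. Relative viability is the nuclei count for treated wells divided by that for vehicle wells, reported as medians of duplicate plates.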

Alpelisib + Lapatinib = compound: Cc1nc(NC(=O)N2CCC[C@H]2C(N)=O)sc1-c1ccnc(C(C)(C)C(F)(F)F)c1 [Alpelisib] + CS(=O)(=O)CCNCc1ccc(-c2ccc3ncnc(Nc4ccc(OCc5cccc(F)c5)c(Cl)c4)c3c2)o1 [Lapatinib] (partner 2 µM)
In short: as §1

OSI-027 + Pemetrexed = compound: COc1cccc2cc(-c3nc([C@H]4CC[C@H](C(=O)O)CC4)n4ncnc(N)c34)[nH]c12 [OSI-027] + Nc1nc2[nH]cc(CCc3ccc(C(=O)N[C@@H](CCC(=O)O)C(=O)O)cc3)c2c(=O)[nH]1 [Pemetrexed] (partner 0.2 µM)
In short: as §1

Alpelisib + Linsitinib = compound: Cc1nc(NC(=O)N2CCC[C@H]2C(N)=O)sc1-c1ccnc(C(C)(C)C(F)(F)F)c1 [Alpelisib] + C[C@]1(O)C[C@@H](c2nc(-c3ccc4ccc(-c5ccccc5)nc4c3)c3c(N)nccn32)C1 [Linsitinib] (partner 1 µM)
In short: as §1

Row | Cell Line | relative viability (OSI-027 + Foretinib; first compound 0.01 µM) | relative viability (OSI-027 + Foretinib; first compound 0.03162 µM) | relative viability (OSI-027 + Foretinib; first compound 0.1 µM) | relative viability (OSI-027 + Foretinib; first compound 0.3162 µM) | relative viability (OSI-027 + Foretinib; first compound 1 µM) | relative viability (Alpelisib + Lapatinib; first compound 0.04 µM) | relative viability (Alpelisib + Lapatinib; first compound 0.1265 µM) | relative viability (Alpelisib + Lapatinib; first compound 0.4 µM) | relative viability (Alpelisib + Lapatinib; first compound 1.265 µM) | relative viability (Alpelisib + Lapatinib; first compound 4 µM) | relative viability (OSI-027 + Pemetrexed; first compound 0.01 µM) | relative viability (OSI-027 + Pemetrexed; first compound 0.03162 µM) | relative viability (OSI-027 + Pemetrexed; first compound 0.1 µM) | relative viability (OSI-027 + Pemetrexed; first compound 0.3162 µM) | relative viability (OSI-027 + Pemetrexed; first compound 1 µM) | relative viability (Alpelisib + Linsitinib; first compound 0.04 µM) | relative viability (Alpelisib + Linsitinib; first compound 0.1265 µM) | relative viability (Alpelisib + Linsitinib; first compound 0.4 µM) | relative viability (Alpelisib + Linsitinib; first compound 1.265 µM) | relative viability (Alpelisib + Linsitinib; first compound 4 µM)
1 | LC-2-ad | 0.826 | 0.899 | 0.888 | 0.765 | 0.582 | 0.958 | 1.01 | 0.975 | 0.645 | 0.542 | 0.279 | 0.239 | 0.273 | 0.283 | 0.271 | 0.766 | 0.798 | 0.839 | 0.724 | 0.66
2 | NCI-H2126 | 1.3 | 0.983 | 1.2 | 0.862 | 0.786 | 0.75 | 0.704 | 0.701 | 0.567 | 0.499 | 0.677 | 0.676 | 0.663 | 0.688 | 0.512 | 0.682 | 0.716 | 0.66 | 0.698 | 0.63
3 | HOP-62 | 1.19 | 1.09 | 1.02 | 1.14 | 0.541 | 1.03 | 0.775 | 1.02 | 0.826 | 0.794 | 0.371 | 0.307 | 0.341 | 0.331 | 0.261 | 0.801 | 0.959 | 1.16 | 0.976 | 0.922
4 | HARA | 0.91 | 0.92 | 0.835 | 0.715 | 0.322 | 0.747 | 0.699 | 0.46 | 0.305 | 0.209 | 0.249 | 0.221 | 0.231 | 0.227 | 0.264 | 0.885 | 0.947 | 1.08 | 0.719 | 0.358
5 | NCI-H2087 | 1.11 | 1.1 | 1.01 | 0.863 | 0.39 | 1.02 | 0.978 | 1.26 | 0.703 | 0.97 | 0.696 | 0.674 | 0.694 | 0.533 | 0.338 | 0.853 | 0.979 | 1.05 | 0.803 | 1.07
6 | NCI-H520 | 0.894 | 0.796 | 0.59 | 0.333 | 0.31 | 0.712 | 0.765 | 0.906 | 0.669 | 0.631 | 0.785 | 0.645 | 0.596 | 0.487 | 0.263 | 1.01 | 1.04 | 1.01 | 1.02 | 0.723
7 | HCC-78 | 0.551 | 0.511 | 0.52 | 0.425 | 0.366 | 0.619 | 0.39 | 1.07 | 0.659 | 0.413 | 0.954 | 0.918 | 0.911 | 0.913 | 0.887 | 0.448 | 0.477 | 0.601 | 0.42 | 0.345
8 | COR-L 105 | 1.22 | 1.24 | 0.888 | 1.29 | 0.995 | 0.338 | 0.391 | 0.364 | 0.287 | 0.337 | 1.22 | 1.18 | 1.13 | 1.04 | 0.999 | 1.04 | 0.874 | 0.976 | 0.902 | 0.841
9 | NCI-H1437 | 1.27 | 1.26 | 1.34 | 1.28 | 0.691 | 0.756 | 0.91 | 0.772 | 0.616 | 0.602 | 0.357 | 0.348 | 0.26 | 0.259 | 0.24 | 1.06 | 1.02 | 1.05 | 0.827 | 0.844
